Data taken from patent publication US9102617B2, “Antimicrobial agents” (Rutgers, The State University of New Jersey, priority 2010, dated 2015).
In brackets after ≈: the same amount, converted by molar mass.

Each compound was assayed on methicillin-sensitive Staphylococcus aureus (MSSA) (assay: Planktonic antibacterial broth microdilution assay (Test C), MIC vs MSSA). Settings: 37° C., growth read after 24 to 48 hours at OD 600 nm.
Assay type: cell-based
Procedure: (§1) Test C. Planktonic (Free-Living) Antibacterial Assay.
(§2) Planktonic antibacterial activity can be determined using a broth microdilution assay in which log-phase bacteria are grown at 37° C. in appropriate medium containing two-fold serial dilutions of a compound to yield a final concentration ranging from 256 to 0.1 μg/ml. For determination of minimal inhibitory concentration (MIC) values, bacterial growth is monitored after 24 to 48 hours by measuring optical density at 600 nm. […] The minimal inhibitory concentration against methicillin-sensitive Staphylococcus aureus (MSSA) for each of the following representative compounds of the invention was determined to be less than 32 μg/ml.

MIC | Structure (SMILES)
> 64 µg/mL | C[n+]1cccc2ccccc21.[I-] [Comparative Example A, reference compound]
≤ 8 µg/mL | COc1cc(-c2cc3ccccc3[n+](C)c2)cc(-c2ccc(-c3ccccc3)cc2)c1OC.[I-] [Example 2]
16 µg/mL | COc1cc(-c2cc3ccccc3[n+](C)c2)cc(-c2ccc(F)cc2)c1OC.[I-] [Example 4]
≤ 8 µg/mL | COc1cc(-c2cc3ccccc3[n+](C)c2)cc(-c2cccc(-c3ccc(F)cc3)c2)c1OC.[I-] [Example 6]
≤ 8 µg/mL | COc1cc(-c2cc3ccccc3[n+](C)c2)cc(-c2cc(-c3ccc(F)cc3)cc(-c3ccc(F)cc3)c2)c1OC.[I-] [Example 8]
≤ 8 µg/mL | COc1cc(-c2cc3ccccc3[n+](C)c2)cc(-c2ccc(C(C)(C)C)cc2)c1OC.[I-] [Example 11]
≤ 8 µg/mL | COc1cc2cc(-c3cc(OC)c(OC)c(-c4ccc(-c5ccccc5)cc4)c3)c[n+](C)c2cc1OC.[I-] [Example 13]
≤ 8 µg/mL | CCC[n+]1cc(-c2cc(OC)c(OC)c(-c3ccc(-c4ccccc4)cc3)c2)cc2cc(OC)c(OC)cc21.[I-] [Example 14]
≤ 8 µg/mL | COc1cc2cc(-c3cc(OC)c(OC)c(-c4ccc(C(C)(C)C)cc4)c3)c[n+](C)c2cc1OC.[I-] [Example 16]
≤ 8 µg/mL | COc1cc2cc(-c3cc(OC)c(OC)c(-c4ccc(C5CCCCC5)cc4)c3)c[n+](C)c2cc1OC.[I-] [Example 21]
≤ 8 µg/mL | CCC[n+]1cc(-c2cc(OC)c(OC)c(-c3ccc(C4CCCCC4)cc3)c2)cc2cc(OC)c(OC)cc21.[I-] [Example 22]
≤ 8 µg/mL | COc1cc(-c2cc3cc4c(cc3[n+](C(C)C)c2)OCO4)cc(-c2ccc(-c3ccccc3)cc2)c1OC.[I-] [Example 25]
≤ 8 µg/mL | COc1cc(-c2cc3cc4c(cc3[n+](C)c2)OCO4)cc(-c2ccc(C(C)(C)C)cc2)c1OC.[I-] [Example 26a]
≤ 8 µg/mL | COc1cc(-c2cc3ccc(OC)c(OC)c3[n+](C)c2)cc(-c2cccc(C(C)(C)C)c2)c1OC.[I-] [Example 28]
≤ 8 µg/mL | COc1cc(-c2cc3ccc(OC)c(OC)c3[n+](C)c2)cc(-c2ccc(C(C)(C)C)cc2)c1OC.[I-] [Example 30]
≤ 8 µg/mL | COc1cc(-c2cc3ccccc3nc2CN)cc(-c2ccc(C(C)(C)C)cc2)c1OC [Example 31]
≤ 8 µg/mL | C[n+]1cc(-c2cc(F)c(F)c(-c3ccc(-c4ccccc4)cc3)c2)cc2ccccc21.[I-] [Example 33]
≤ 8 µg/mL | C[n+]1cc(-c2cc(-c3ccccc3)cc(-c3ccccc3)c2)cc2ccccc21.[I-] [Example 35]
≤ 8 µg/mL | CC(C)(C)c1ccc(-c2cccc3c(CCN)cccc23)cc1 [Example 36]
≤ 8 µg/mL | CC(C)(C)c1ccc(-c2cccc3c(CCN=C(N)N)cccc23)cc1 [Example 37]
≤ 8 µg/mL | CC(C)(C)c1ccc(-c2ccc(CCN)c3ccccc23)cc1 [Example 38, 2-(4-(4-(t-butyl)phenyl)naphthalen-1-yl)ethanamine]
≤ 8 µg/mL | CC(C)(C)c1ccc(-c2ccc(CCN=C(N)N)c3ccccc23)cc1 [Example 39]

MIC | Structure (SMILES)
≤ 8 µg/mL | CC(C)(C)c1ccc(-c2ccc(CN=C(N)N)c3ccccc23)cc1 [Example 40]
≤ 8 µg/mL | COc1cc(C(F)(F)F)ccc1-c1cccc2c(CN=C(N)N)cccc12 [Example 43]
≤ 8 µg/mL | COc1cc(C(F)(F)F)ccc1-c1cccc2c(CCN)cccc12 [Example 44, 2-(5-(2-Methoxy-4-(trifluoromethyl)phenyl)naphthalen-1-yl)ethanamine]
≤ 8 µg/mL | COc1cc(C(F)(F)F)ccc1-c1cccc2c(CCN=C(N)N)cccc12 [Example 45]
≤ 8 µg/mL | NC(N)=NCc1cccc2c(-c3ccc(C4CC4)cc3)cccc12 [Example 46]
≤ 8 µg/mL | Cc1cc(C(F)(F)F)ccc1-c1cccc2c(CN=C(N)N)cccc12 [Example 47]
≤ 8 µg/mL | COc1cc2c(-c3ccc(-c4ccccc4)cc3)ccc([N+](C)(C)C)c2cc1OC.[I-] [Example 50]
≤ 8 µg/mL | N=C(N)NCc1cccc2c(-c3ccc(Br)cc3)cccc12 [Example 51, 1-((5-(4-bromophenyl)naphthalen-1-yl)methyl)guanidine]
≤ 8 µg/mL | N=C(N)NCc1cccc2c(-c3ccc(Cl)cc3)cccc12 [Example 52]
≤ 8 µg/mL | N=C(N)NCc1cccc2c(-c3ccc(C(F)(F)F)cc3)cccc12 [Example 53]
≤ 8 µg/mL | N=C(N)NCCc1cccc2c(-c3ccc(C(F)(F)F)cc3)cccc12 [Example 55]
≤ 8 µg/mL | CC(C)(C)c1ccc(-c2cccc3c(CC(=N)N)cccc23)cc1 [Example 56]
≤ 8 µg/mL | COc1ccc(-c2ccc3c(-c4ccc(C(C)(C)C)cc4)cccc3c2CNC(=N)N)c(OC)c1OC [Example 58]
≤ 8 µg/mL | CN(C)CCNCc1ccccc1-c1ccc2c(-c3ccc(C(C)(C)C)cc3)cccc2c1 [Example 59]
32 µg/mL (≈ 81.3 µM) | CN(C)Cc1ccccc1-c1ccc2c(-c3ccc(C(C)(C)C)cc3)cccc2c1 [Example 60, (2-(1-(4-t-butylphenyl)naphthalen-6-yl)phenyl)-N,N-dimethylmethanamine]
≤ 8 µg/mL | CNCc1ccccc1-c1ccc2c(-c3ccc(C(C)(C)C)cc3)cccc2c1 [Example 61]
≤ 8 µg/mL | CC(C)(C)c1ccc(-c2cccc3cc(-c4cccc([N+](C)(C)C)c4)ccc23)cc1.[I-] [Example 65]
≤ 8 µg/mL | C[N+](C)(C)c1cccc(-c2ccc3c(-c4cccc(-c5ccccc5)c4)cccc3c2)c1.[I-] [Example 67]
≤ 8 µg/mL | C[N+](C)(C)c1ccc(-c2ccc3c(-c4cccc(-c5ccccc5)c4)cccc3c2)cc1.[I-] [Example 69]
≤ 8 µg/mL | CN(C)Cc1cccc(-c2ccc3c(-c4cccc(-c5ccccc5)c4)cccc3c2)c1 [Example 71]
≤ 8 µg/mL | C[N+](C)(C)Cc1cccc(-c2ccc3c(-c4cccc(-c5ccccc5)c4)cccc3c2)c1.[I-] [Example 72]
≤ 8 µg/mL | C[N+](C)(C)c1cccc(-c2ccc3c(-c4ccc(F)cc4)cccc3c2)c1.[I-] [Example 74]

MIC | Structure (SMILES)
≤ 8 µg/mL | C[N+](C)(C)c1ccc(-c2ccc3c(-c4ccc(F)cc4)cccc3c2)cc1.[I-] [Example 76]
≤ 8 µg/mL | CC(C)(C)c1ccc(-c2cccc(-c3cccc4cc(-c5cccc([N+](C)(C)C)c5)ccc34)c2)cc1.[I-] [Example 78]
≤ 8 µg/mL | C[N+](C)(C)c1cccc(-c2ccc3c(-c4cccc(-c5ccc(C(F)(F)F)cc5)c4)cccc3c2)c1.[I-] [Example 80]
≤ 8 µg/mL | C[N+](C)(C)c1cccc(-c2ccc3c(-c4cc(-c5ccc(F)cc5)cc(-c5ccc(F)cc5)c4)cccc3c2)c1.[I-] [Example 82]
≤ 8 µg/mL | COC(=O)c1ccc(-c2ccc3c(-c4ccc(C(C)(C)C)cc4)cccc3c2)c(C[N+](C)(C)C)c1.[I-] [Example 84]
≤ 8 µg/mL | CN(C)Cc1cc(C(=O)O)ccc1-c1ccc2c(-c3ccc(C(C)(C)C)cc3)cccc2c1.Cl [Example 85]
≤ 8 µg/mL | CNCc1cc(C(=O)OC)ccc1-c1ccc2c(-c3ccc(C(C)(C)C)cc3)cccc2c1 [Example 86, methyl 4-(1-(4-t-butylphenyl)naphthalen-6-yl)-3-((methylamino)methyl)benzoate]
≤ 8 µg/mL | CNCc1cc(C(=O)O)ccc1-c1ccc2c(-c3ccc(C(C)(C)C)cc3)cccc2c1.Cl [Example 87]
> 64 µg/mL | CC(C)(C)c1ccc(-c2cccc3cc(-c4ccc(C(=O)O)cc4CN)ccc23)cc1.Cl [Example 88]
≤ 8 µg/mL | COC(=O)c1ccc(-c2ccc3c(-c4ccc(C(C)(C)C)cc4)cccc3c2)c(CN)c1 [Example 89, methyl 4-(1-(4-t-butylphenyl)naphthalen-6-yl)-3-(aminomethyl)benzoate]
≤ 8 µg/mL | C[N+](C)(C)c1cccc(-c2ccc3c(-c4ccc(-c5ccccc5)cc4)cccc3c2)c1.[I-] [Example 93]
≤ 8 µg/mL | C[N+](C)(C)c1ccc(-c2ccc3c(-c4ccc(-c5ccccc5)cc4)cccc3c2)cc1.[I-] [Example 95]
≤ 8 µg/mL | C[N+](C)(C)c1cccc(-c2ccc3c(-c4ccc(C(F)(F)F)cc4)cccc3c2)c1.[I-] [Example 97]
≤ 8 µg/mL | CC(C)(C)c1ccc(-c2cccc3cc(-c4ccc([N+](C)(C)C)cc4)ccc23)cc1.[I-] [Example 100]
≤ 8 µg/mL | COC(=O)c1ccc(-c2ccc3c(-c4ccc(C(C)(C)C)cc4)cccc3c2)c(CNC(=N)N)c1 [Example 101]
≤ 8 µg/mL | COc1ccc(CNC(=N)N)c(-c2ccc3c(-c4ccc(C(C)(C)C)cc4)cccc3c2)c1OC [Example 102]
≤ 8 µg/mL | COc1cc(CC(=N)N)c(-c2ccc3c(-c4ccc(C(C)(C)C)cc4)cccc3c2)cc1OC [Example 103]
≤ 8 µg/mL | N=C(N)NCc1ccccc1-c1ccc2c(-c3cccc(-c4ccccc4)c3)cccc2c1 [Example 105]
≤ 8 µg/mL | COc1c(CCN)ccc(-c2ccc3c(-c4ccc(C(C)(C)C)cc4)cccc3c2)c1OC.Cl [Example 106]
≤ 8 µg/mL | C[n+]1cc(-c2ccc(-c3ccccc3)cc2)c2ccccc2c1.[I-] [Example 107]
16 µg/mL | C[n+]1cccc2cccc(-c3ccc(-c4ccccc4)cc3)c21.[I-] [Example 118]
≤ 8 µg/mL | C[n+]1cccc2c(-c3ccc(-c4ccccc4)cc3)cccc21.[I-] [Example 122]

Structure (SMILES) | MIC
C[n+]1c(-c2ccccc2)ccc2ccccc21.[I-] [Comparative Example B, reference compound] | > 64 µg/mL

These compounds were tested on methicillin-resistant Staphylococcus aureus (MRSA) (assay: Planktonic antibacterial broth microdilution assay (Test C), MIC vs MRSA). Settings: broth microdilution, 37° C., growth read after 24 to 48 hours at OD 600 nm, read-out: MIC vs MRSA.
Assay type: cell-based
Procedure: as §1, §2
Representative compounds of the invention were also tested against methicillin-resistant Staphylococcus aureus, vancomycin-resistant Enterococcus faecalis and Enterococcus faecium (VRE), vancomycin-sensitive Enterococcus faecalis and Enterococcus faecium (VSE).

MIC | Structure (SMILES)
≤ 8 µg/mL | COc1cc(-c2cc3ccccc3[n+](C)c2)cc(-c2ccc(C(C)(C)C)cc2)c1OC.[I-] [Example 11]
≤ 8 µg/mL | C[n+]1cc(-c2cc(-c3ccccc3)cc(-c3ccccc3)c2)cc2ccccc21.[I-] [Example 35]
≤ 8 µg/mL | CC(C)(C)c1ccc(-c2cccc3c(CCN)cccc23)cc1 [Example 36]
≤ 8 µg/mL | CC(C)(C)c1ccc(-c2cccc3c(CCN=C(N)N)cccc23)cc1 [Example 37]
≤ 8 µg/mL | CC(C)(C)c1ccc(-c2cccc3c(CC(=N)N)cccc23)cc1 [Example 56]
≤ 8 µg/mL | CN(C)CCNCc1ccccc1-c1ccc2c(-c3ccc(C(C)(C)C)cc3)cccc2c1 [Example 59]
≤ 8 µg/mL | CNCc1ccccc1-c1ccc2c(-c3ccc(C(C)(C)C)cc3)cccc2c1 [Example 61]
